In US12215140B2, “Method of stabilizing protein contained in specimen and solution for stabilizing protein contained in specimen” (EIKEN KAGAKU KABUSHIKI KAISHA, priority 2018, dated 2025):

Molecular target: hemoglobin (Homo sapiens, UniProt P68871+P69905)
Experiment: Stability of hemoglobin in samples preserved at 37° C. in preservation solution containing no haptoglobin, Hb measured by latex agglutination method (Examples 8, 9 and Table 10)
Conditions: for Hb concentration / Recovery ratio with respect to Hb after 0 days: no phenylboronic acid, sugar 100 mmol/L; for recovery ratio of hemoglobin in the sample: sugar further added to phenylboronic acid 0.5 mmol/L, no haptoglobin, Feces 1, Feces 2, Feces 3
Protocol: Preservation solutions were prepared with the addition of 40 mmol/L HEPES (pH 6.8), 0.1% BSA, 0.1% NaN3, and 0 to 2.5 mmol/L phenylboronic acid. […] Samples obtained by adding hemoglobin-added fecal specimens to the preservation solutions so that the fecal concentration would be 0.5% were preserved at 37° C. for 0, 16, 38, and 62 hours. The fecal specimens were added with hemoglobin having an amount such that the hemoglobin concentration in the samples would be about 300 μg/L. Instead of the fecal specimens to which hemoglobin was added, samples containing no fecal specimens, in which hemoglobin was added to the preservation solutions so that the hemoglobin concentration in the samples would be 300 μg/L, were similarly preserved. The hemoglobin (Hb) concentrations (μg/L) in the preserved samples were measured by the latex agglutination method using the same measurement reagent and measurement device as in Example 1.
The concentration of phenylboronic acid in the preservation solutions of Example 8 was fixed to 0.5 mmol/L, preservation solutions to which sorbitol or sucrose was further added at 10 to 250 mmol/L or trehalose, glucose, fructose, or mannitol was further added at 50 to 100 mmol/L were prepared, and testing was conducted in the same manner as in Example 8. In addition, preservation solutions to which the phenylboronic acid was added but no sugar was added were prepared, preservation solutions to which the phenylboronic acid and sugar were not added were prepared for the comparative examples, and testing was conducted in the same manner.
For comparative examples, preservation solutions to which no arylboronic acid was added were prepared, and testing was conducted in the same manner.

hemoglobin, sequence (P69905 2-142): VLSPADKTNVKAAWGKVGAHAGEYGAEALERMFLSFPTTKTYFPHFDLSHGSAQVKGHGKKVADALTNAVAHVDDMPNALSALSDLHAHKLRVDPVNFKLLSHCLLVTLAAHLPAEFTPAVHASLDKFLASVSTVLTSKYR
hemoglobin, sequence (P68871 2-147): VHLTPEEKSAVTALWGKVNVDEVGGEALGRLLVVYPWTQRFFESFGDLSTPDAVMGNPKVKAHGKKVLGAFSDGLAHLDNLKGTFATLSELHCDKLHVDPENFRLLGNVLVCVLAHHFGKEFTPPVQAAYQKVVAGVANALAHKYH

Row | Compound | Hb concentration (Feces 1, 0 h at 37° C.) | Recovery ratio with respect to Hb after 0 days (Feces 1, 0 h at 37° C.) | Hb concentration (Feces 1, 16 h at 37° C.) | Recovery ratio with respect to Hb after 0 days (Feces 1, 16 h at 37° C.) | Hb concentration (Feces 1, 38 h at 37° C.) | Recovery ratio with respect to Hb after 0 days (Feces 1, 38 h at 37° C.) | Hb concentration (Feces 1, 62 h at 37° C.) | Recovery ratio with respect to Hb after 0 days (Feces 1, 62 h at 37° C.) | Hb concentration (Feces 2, 0 h at 37° C.) | Recovery ratio with respect to Hb after 0 days (Feces 2, 0 h at 37° C.) | Hb concentration (Feces 2, 16 h at 37° C.) | Recovery ratio with respect to Hb after 0 days (Feces 2, 16 h at 37° C.) | Hb concentration (Feces 2, 38 h at 37° C.) | Recovery ratio with respect to Hb after 0 days (Feces 2, 38 h at 37° C.) | Hb concentration (Feces 2, 62 h at 37° C.) | Recovery ratio with respect to Hb after 0 days (Feces 2, 62 h at 37° C.) | Hb concentration (Feces 3, 0 h at 37° C.) | Recovery ratio with respect to Hb after 0 days (Feces 3, 0 h at 37° C.) | Hb concentration (Feces 3, 16 h at 37° C.) | Recovery ratio with respect to Hb after 0 days (Feces 3, 16 h at 37° C.) | other results
1 | OC[C@@H](O)[C@@H](O)[C@H](O)[C@@H](O)CO [Sorbitol, sorbitol] | 290 µg/L | 100% | 146 µg/L | 50% | 39 µg/L | 13% | 1 µg/L | 0% | 275 µg/L | 100% | 61 µg/L | 22% | 0 µg/L | 0% | 0 µg/L | 0% | 277 µg/L | 100% | 49 µg/L | 18% | Hb concentration (Feces 3, 38 h at 37° C.): 1 µg/L; Recovery ratio with respect to Hb after 0 days (Feces 3, 38 h at 37° C.): 0%; Hb concentration (Feces 3, 62 h at 37° C.): 0 µg/L; Recovery ratio with respect to Hb after 0 days (Feces 3, 62 h at 37° C.): 0%; Hb concentration (No feces, 0 h at 37° C.): 300 µg/L; Recovery ratio with respect to Hb after 0 days (No feces, 0 h at 37° C.): 100%; Hb concentration (No feces, 16 h at 37° C.): 263 µg/L; Recovery ratio with respect to Hb after 0 days (No feces, 16 h at 37° C.): 88%; Hb concentration (No feces, 38 h at 37° C.): 245 µg/L; Recovery ratio with respect to Hb after 0 days (No feces, 38 h at 37° C.): 82%; Hb concentration (No feces, 62 h at 37° C.): 235 µg/L; Recovery ratio with respect to Hb after 0 days (No feces, 62 h at 37° C.): 79%; recovery ratio of hemoglobin in the sample: further improved
2 | OC[C@H]1O[C@@](CO)(O[C@H]2O[C@H](CO)[C@@H](O)[C@H](O)[C@H]2O)[C@@H](O)[C@@H]1O [Sucrose, sucrose] | 271 µg/L | 100% | 137 µg/L | 51% | 45 µg/L | 16% | 10 µg/L | 4% | 255 µg/L | 100% | 57 µg/L | 22% | 3 µg/L | 1% | 0 µg/L | 0% | 257 µg/L | 100% | 67 µg/L | 26% | Hb concentration (Feces 3, 38 h at 37° C.): 0 µg/L; Recovery ratio with respect to Hb after 0 days (Feces 3, 38 h at 37° C.): 0%; Hb concentration (Feces 3, 62 h at 37° C.): 0 µg/L; Recovery ratio with respect to Hb after 0 days (Feces 3, 62 h at 37° C.): 0%; Hb concentration (No feces, 0 h at 37° C.): 278 µg/L; Recovery ratio with respect to Hb after 0 days (No feces, 0 h at 37° C.): 100%; Hb concentration (No feces, 16 h at 37° C.): 245 µg/L; Recovery ratio with respect to Hb after 0 days (No feces, 16 h at 37° C.): 88%; Hb concentration (No feces, 38 h at 37° C.): 229 µg/L; Recovery ratio with respect to Hb after 0 days (No feces, 38 h at 37° C.): 83%; Hb concentration (No feces, 62 h at 37° C.): 224 µg/L; Recovery ratio with respect to Hb after 0 days (No feces, 62 h at 37° C.): 81%; recovery ratio of hemoglobin in the sample: further improved
